From a melting point compilation (Tetko et al.; mined from patent text by program, amines drawn as free bases though some values may be those of a salt)

Row | SMILES | melting point [°C]
1 | COC(=O)c1cccc(-c2nc(COc3ccc(CO)cc3OC)c(C)o2)c1 | 141 to 142
2 | Cc1cccc(C(=O)NO)c1N(C)S(=O)(=O)c1ccc(OCCCCNC(=O)c2cc3ccccc3o2)cc1 | 131 to 134
3 | CCOC(=O)NS(=O)(=O)c1cc(C(C)=O)ccc1Cl | 106
4 | O=C(c1ccccc1)c1c(O)c(=O)ccn1CCO | 195 to 200
5 | COC(=O)Cc1cc(O)n(C)n1 | 148
6 | CC(C)n1nc(-c2sc(NC(=O)c3ccc(F)cc3)nc2-c2ccccc2)ccc1=O | 225 to 226
7 | CS(=O)c1ccc(F)c(-c2nc3ncccc3[nH]2)c1 (configuration not stated) | 190 to 192
8 | COc1cccc(C=C2NC(=O)N(C)C2=O)c1 | 203 to 205
9 | COc1cc(OC(C)(C)C(=O)O)c(-c2cccs2)cc1C=CC(=O)c1ccc(C(=O)O)cc1 | 135 to 137
10 | Cc1nc2c3c(ccn2c1C)C(O)CC(c1ccccc1)N3 (configuration not stated) | 210 to 212
11 | O=Cc1cc([N+](=O)[O-])cc(Cl)c1S | 84 to 89
12 | CCCc1cc(Cl)nc(-c2cccc(Oc3ccccc3Cl)n2)n1 | 96.5
13 | O=C(CCO)NCc1ccc2ccn(C3CCN(CCc4ccccc4F)CC3)c2c1 | 58 to 59
14 | CCOC(=O)Cc1cccc(-c2nc(CCl)c(C)o2)c1 | 64 to 65
15 | N#CCOc1ccc(-c2ccccc2)cc1 | 81 to 83
16 | CCCC(O)C(C)C(=O)n1c(=O)oc2ccccc21 (configuration not stated) | 123 to 124
17 | CCOC(=O)COc1ccc(CSCC(=O)OCC)cc1NC(=O)c1ccc(OCCCCc2ccccc2)cc1 | 56 to 57
18 | O=C1N(CC(O)CO)c2ccccc2C12COc1cc3c(cc12)OCCO3 (configuration not stated) | 179 to 181
19 | Cc1cc(N2C=CC(=O)CC2)nn2cnnc12 | 264 to 266
20 | O=C(c1ccco1)n1sc2ccccc2c1=O | 157 to 161
21 | COc1ccc(C2(C#N)CCC(=CC(=O)O)CC2)c2c1OCCO2 (configuration not stated) | 203 to 204
22 | CCOC(=O)CCCn1c(=O)c2sc(N)nc2n(C)c1=O | 170 to 171
23 | COC(=O)C(C(=O)Nc1ccc(F)cc1)=C1SCS1 | 141 to 142
24 | C=Cc1c(C)c(NC(=O)CC(C)(C)C)c(C)c2c1OCC2c1ccc(C(C)C)cc1 (configuration not stated) | 171 to 172
25 | COc1ccc(C(=O)Nc2ccccc2)cc1NCc1ccc(C)cc1 | 184 to 186
26 | N#Cc1ccc(Oc2ccc(-c3ccc(Oc4ccc(C#N)c(C#N)c4)cc3)cc2)cc1C#N | 230 to 232

Row | SMILES | melting point [°C]
27 | O=C(O)CCCCCCCOc1ccccc1 | 67 to 68
28 | COc1cccc(C23CC(=O)NC(=O)C2=CCC(C)C3)c1 (configuration not stated) | 218 to 221
29 | COc1ccc2[nH]cc(S(=O)(=O)c3ccccc3)c2n1 | 223 to 225
30 | CCOC(=O)CCNC(=O)c1n[nH]cc1NC(=O)c1cccc(C)n1 | 228 to 229
31 | CS(=O)(=O)c1ccc(-c2cc(/C=C\CCO[N+](=O)[O-])nn2C2CCCCC2)cc1 | 129 to 130
32 | NCC1Cc2cc(C(F)(F)F)cc(-c3cccc(F)c3)c2O1 (configuration not stated) | > 250
33 | O=[N+]([O-])c1ccc(OCc2ccccn2)cc1 | 116 to 117
34 | CCCN1Cc2cncn2C(c2ccc(C#N)cc2)C1=O (configuration not stated) | 97 to 98
35 | COc1cc(N)c(Cl)cc1C(=O)NCC1CCN(CCCCCNC(=O)Nc2ccccc2)CC1 | 214 to 217
36 | CC(=O)NCCCCn1cnc2c(N)nc(C)c(C)c21 | 217 to 219
37 | O=C(Cc1ccccc1)Nc1ccc2ccc(Cl)nc2n1 | 187
38 | CCOC(=O)c1c(C)cc2c(c1C)c(=O)n(-c1ccccc1Cl)c(=O)n2C(=O)O | 182 to 183
39 | Cc1cc(NC(=O)OC(C)(C)C)c(N)cc1C#Cc1ccccc1 | 172 to 173
40 | CC(C)c1ccc(NC(=O)C(F)(F)F)cc1 | 98
41 | O=C(N1CCC(N2CCOCC2)CC1)C12CC(c3ccccc31)c1ccccc12 | 179 to 180
42 | COC(=O)CCCCCNC(=O)/C=C/C=C/c1ccccc1 | 125 to 127
43 | Nc1nc(-c2ccnc(-c3ccc(N4CCOCC4)cc3)c2)c(-c2ccccn2)s1 | 276
44 | COCOc1ccc(-c2ccc(-c3ccc(C(=O)O)cc3)cc2-c2ccc3c(c2)C(C)(C)CCC3(C)C)cc1 | 249 to 251
45 | CC1CCc2ccc(NC(=O)C(F)(F)F)c3c(=O)c(C(=O)O)cn1c23 (configuration not stated) | 301 to 303
46 | CCCCc1ncc(CC(Cc2ccccc2)C(=O)O)n1Cc1ccccc1Cl (configuration not stated) | 118 to 120
47 | O=[N+]([O-])c1cc(F)ccc1Sc1ccccc1 | 66 to 67
48 | COc1cccc(-n2c(CC(c3ccccc3)c3c[nH]c4ccccc34)nc3ccccc3c2=O)c1 (configuration not stated) | 160 to 164
49 | C[C@@H](NC(=O)c1c[nH]c2ncc(-c3nn(C)c4cc(F)ccc34)nc12)C(=O)N1CC(C#N)C1 | 270 to 277
50 | CCOC(=O)c1c(-c2ccc(F)cc2)c2n(c1C(C)C)CCCC2 | 85.5 to 86.5
51 | COc1ccc(OCC(O)CNC(C)(C)C)c(C2=NNC(=O)CC2)c1 (configuration not stated) | 127 to 128
52 | Nc1c(-c2ccccc2)oc2c(CO)cccc2c1=O | 192

Row | SMILES | melting point [°C]
53 | CCCC(CCC)C(=O)NC(=O)CN | 127
54 | O=C(COc1ccccc1)Nc1c(Cl)ccc2nc(N3CC[C@@H](O)C3)ccc12 | 233 to 235
55 | O=C(O)c1ccc(CCCC2SCC(=O)N2C/C=C\C2(O)CCCCC2)cc1 (configuration not stated) | 118 to 120
56 | CCCCc1nc(C(F)(F)F)c(C(=O)OCC)n1Cc1cccc2c1ccn2-c1ccccc1-c1nn[nH]n1 | 93 to 95
57 | CCOC(=O)C(C#N)(CCN1CCOCC1)c1ccc(C(F)(F)F)cc1 (configuration not stated) | 96 to 97
58 | CN1CCN(Cc2c(Cl)cccc2Cl)C(C2=NCCN2)C1 (configuration not stated) | 182 to 184
59 | CC(NC(=O)c1cccc([N+](=O)[O-])c1)C(F)(F)F (configuration not stated) | 130 to 131
60 | CC(C)C(=O)NCc1cccc(-c2nc(=O)c3ccccc3s2)n1 | 189
61 | CNC(=S)NS(=O)(=O)c1cc(CCNC(=O)/C=C/c2ccccn2)ccc1OC | 188
62 | O=[N+]([O-])c1ccc(S(=O)(=O)NCCc2ccccc2)c([N+](=O)[O-])c1 | 127 to 128
63 | Cc1ccc(S(=O)(=O)OCC2CCn3c(nc4ccccc43)S2)cc1 (configuration not stated) | 145 to 147
64 | ClCCCCSc1ccncc1 | 80 to 85
65 | CS(=O)(=O)OC1CN(c2c(F)cc3c(=O)c(C(=O)O)cn(C4CC4)c3c2F)C1 | 240 to 244
66 | C[C@@H]1N[C@H](c2ccccc2)COC1=O | 82 to 83
67 | Cc1cc(C(=O)O)c(C)c2c1SCCC2(C)C | 166 to 167
68 | O=C(NO)c1ccc(CNC(=O)c2[nH]c(-c3ccoc3)cc2-c2ccc(F)cc2)cc1 | 162 to 164
69 | COc1cc(Cc2cnc(N3C(=O)c4ccccc4C3=O)nc2N)cc(OC)c1OC | 221
70 | COc1c(O)c(OC)c2c(=O)cc(-c3ccc(O)c(O)c3)oc2c1OC | 279 to 281
71 | CC(N1CCN(c2nnn(Cc3ccc(C(C)(C)C)cc3)n2)CC1)C(O)(Cn1cncn1)c1ccc(F)cc1F (configuration not stated) | 99 to 101
72 | OCc1ccc(OCc2csc(-c3ccccc3)n2)cc1 | 145 to 146
73 | COC(=O)c1cc(-c2nnn(C)n2)c(C(=O)OC)s1 | 121 to 122
74 | O=C(O)C1CCN(C(=O)OCC2c3ccccc3-c3ccccc32)CC1 | 187 to 189
75 | CCCc1c(OCCCCCC(=O)c2cc(O)c(O)cc2F)ccc(C(=O)O)c1O | 193 to 195
76 | c1ccc2c(OC[C@H]3CCCN3c3ncnc4[nH]cnc34)ccc(CN3CCOCC3)c2c1 | 134 to 138
77 | COc1nc2ccc([N+](=O)[O-])cc2nc1Cl | 155 to 158
78 | N#CN=C(Cc1ccccc1F)NC1CCc2ccccc21 (configuration not stated) | 141 to 142

Row | SMILES | melting point [°C]
79 | CCc1cc(NCc2ccc(-c3ccccc3-c3nnn[nH]3)cc2)n2ncc(Cl)c2n1 | 136 to 138
80 | O=C(Nc1ccc(N2CCCCC2)cc1)N(C[C@H]1CC[C@H](CN(C(=O)Nc2ccc(N3CCCCC3)cc2)C2CCCCC2)CC1)C1CCCCC1 | 174 to 178
81 | Cc1cn([C@H]2CC[C@H](CC(=O)O)C[C@@H]2NC(=O)OC(C)(C)C)c(=O)n(COCc2ccccc2)c1=O | 89 to 91
82 | CC(=O)c1ccccc1C(O)=S | 127 to 129
83 | O=C1CCCCCC1n1nc(-c2c(-c3ccccc3)nn3ccccc23)ccc1=O (configuration not stated) | 112 to 114
84 | O=C(CCCCCCCCC1CO1)OCCOC(=O)CCCCCCCCC1CO1 (configuration not stated) | 39 to 40
85 | CNC(=O)c1c(N)cccc1OC | 186 to 189
86 | Nc1ncnc2c1c(-c1ccc(Oc3ccccc3CN3CCCCC3)cc1)cn2C1CCOC1 (configuration not stated) | 76 to 78
87 | O=C(O)CCc1cc2cc(Cl)ccc2n1S(=O)(=O)c1ccc2[nH]ccc2c1 | 79
88 | Cc1onc2c1N(CCCOc1ccccc1)C(=O)COC2(C)c1ccccc1 (configuration not stated) | 118 to 120
89 | Cc1nc(N)nc(N)c1I | 154 to 156
90 | O=C(c1nccs1)c1cnn2c(-c3cccnc3)ccnc12 | 262 to 264
91 | CC(=O)OC1CN=C(c2ccccc2Cl)c2ccccc2N(C)C1 (configuration not stated) | 129 to 131
92 | Nc1ccc(C(c2ccccc2F)n2ccnc2)cc1[N+](=O)[O-] (configuration not stated) | 176
93 | COc1cc(-c2cccs2)ccc1C(=O)/C=C/c1ccc(C(=O)O)cc1 | 193 to 195
94 | O=C1CCCCC1c1ncc[nH]1 (configuration not stated) | 104 to 105
95 | O=C(O)C(O)c1ccc2nc(-c3ccc(Cl)cc3)oc2c1 (configuration not stated) | 222 to 224
96 | CC(C)(C)OC(=O)c1ncn2c1[C@@H]1CCN1C(=O)c1c(I)cccc1-2 | 249 to 250
97 | Nc1c(Br)cccc1CS(=O)(=O)c1ccccc1 | 174 to 177
98 | CC12CCC(=O)C=C1CCC1C2CCC2(C)C(C(F)F)CCC12 (configuration not stated) | 137 to 140
99 | COC(=O)C1CC2c3cccc4[nH]cc(c34)CC2N(C(=O)C2CC2)C1 (configuration not stated) | 276 to 278
100 | Cc1nc(C[C@H]2OC[C@H](c3ccc(F)cc3)CO2)nc(C(=O)NCC(=O)O)c1O | 209
101 | O=C(O)Cc1ccccc1Oc1ccc(C(F)(F)F)cc1NS(=O)(=O)c1cc(C(F)(F)F)cc(C(F)(F)F)c1 | 165 to 166
102 | C=C1C(=O)CCC(C)(C)C1=O | 115 to 116
